The record followed here is patent publication US9694060B2, “Peptide vaccines based on the EGFRvIII sequence for the treatment of tumors” (The Board of Trustees of the Leland Stanford Junior …, priority 2012, dated 2017).

No end group written: not given here.

The test has as its system HC2 20d2/c cells, an NIH-3T3 cell line engineered to overexpress EGFRvIII. Briefly: tumor regression / survival experiments in mice bearing EGFRvIII-overexpressing tumors. Type of test: in vivo, NIH Swiss mice. As to conditions: for survival / effectiveness compared with Peptide G:KLH: Table 1 experiments; for survival / effectiveness compared with Peptide G:KLH / percent survival compared with Peptide G:KLH: in words; for percent survival compared with Peptide G:KLH: overall survival data (Table 2). The protocol: The conjugated peptide vaccines were tested in tumor regression experiments and survival results were compared among animals treating with one of the conjugated peptide vaccines or KLH only.
Additional experiments were performed repeating the experiments described above.
For all experiments, the peptides were synthesized with the sequence as indicated with the cysteine at the carboxy terminus added for the purposes of conjugation. Peptides were then conjugated at a 1:1 w/w ratio to maleimide activated Keyhole Limpet Hemocyanin (KLH) for 24 hours. Following conjugation, the peptide:KLH conjugate was dialyzed against PBS to remove unconjugated peptide
NIH Swiss mice were inoculated subcutaneously in the right hand flank with 2×10^6 HC2 20d2/c cells, an NIH-3T3 cell line engineered to overexpress EGFRvIII. This cell line has been previously used to study anti-tumor responses to SEQ ID NO:2 conjugated to KLH (Moscatello et al., Cancer Res. 57:1419). On the 7th day following inoculation, mice were immunized with 100 μg of conjugated peptide in 100 μl of PBS emulsified with 100 μl of Freund's complete adjuvant. On the 14th day, mice were immunized with 100 μg of peptide in 100 μl of PBS emulsified with 100 μl of Freund's incomplete adjuvant.

Where [1] appears, read: Table 1, first experiments, s.c. tumor, immunized day 7 and day 14 with 100 μg conjugated peptide in Freund's adjuvant.
Where [2] appears, read: Table 2, overall survival data compiled after additional repeat experiments, immunized day 7 and day 14 with 100 μg.

Turning to “LEEKKANYVVTDHC:KLH (also: conjugated to KLH, site not given here) [Peptide A: KLH]”, the “survival / effectiveness compared with Peptide G:KLH” value was “better survival rates” and the “percent survival compared with Peptide G:KLH” value (“percent survival” below) is listed as “higher percent survival”. Moreover, the Survival under setting [1] worked out at 90%. The substance further yielded a Survival under setting [2] of 80%.

Regarding “LEEKKPNYVVTDHC:KLH (also: conjugated to KLH, site not given here) [Peptide P: KLH]”, the “survival / effectiveness compared with Peptide G:KLH” value is recorded as “better survival rates” and the “percent survival” value was “higher percent survival”. Besides, the Survival under setting [1] is listed as 70%. The substance further had a Survival under setting [2] of 65%.

For the substance “Keyhole Limpet Hemocyanin [KLH only, reference compound]”, the Survival is 47% under setting [1] and 32% under setting [2].

For the substance “LEEKKVNYVVTDHC:KLH (also: conjugated to KLH, site not given here) [Peptide V: KLH]”, the “survival / effectiveness compared with Peptide G:KLH” value is on record as “better survival rates” and the “percent survival” value is given as “higher percent survival”. Also, the Survival under setting [1] is 70%. Further, the Survival under setting [2] came to 70%.
